The source of these data is PMC8073907, “Peptide targeting of lysophosphatidylinositol-sensing GPR55 for osteoclastogenesis tuning” (Cell Communication and Signaling : CCS, 2021).

For the test, the system named is HA-GPR55 in HEK293T cells. In words: LPI-induced ERK1/2 activation in GPR55-transfected HEK293T cells. Conditions: 10 µM LPI. It is filed as cell-based, human. From the text:
The construct of haemagglutinin (HA)-tagged human GPR55 in pcDNA3 (HA-GPR55) was a gift from Prof. K. Mackie, Indiana University, Bloomington, IN, USA [39], while the construct ss-3 × HA-GPR55 in pcDNA3.1 (ssGPR55) with a triple HA tag at the N-terminus and an optimised signal sequence (ss, derived from amino acids 1–33 of the human growth hormone: […]) for efficient surface expression was from Prof. A. Irving, Dundee University, UK [40]. For both constructs, mutations were introduced by site-directed mutagenesis using QuickChange kits (Stratagene, La Jolla, CA, USA), according to the manufacturer instructions. The primers for the K80A mutation were 5′-[…]-3′ and 5′-[…]-3′ (Tm, 70.6 °C), and for Q87A were 5′-[…]-3′ and 5′-[…]-3′ (Tm, 73.1 °C).
For GPR55 overexpression, HEK293T cells were plated in their growth medium without antibiotics at 2.6 × 10^5 cells/well in 12-well plates, and 24 h later, the cells were transfected with 1 µg cDNA/well using Lipofectamine 2000, according to the manufacturer instructions. The pcDNA3 empty vector or that coding for human HA-GPR55 wild-type or its mutants HA-GPR55-K80A and HA-GPR55-Q87A were used.
Twenty-four hours after transfection (HEK293T, HeLa cells or clones) or 72 h after interference (RAW264.7 cells), the cells were washed twice with HBSS^++, serum deprived (HEK293T cells for 4 h in DMEM; HeLa cells and clones for 2 h in MEM plus 2 mM glutamine and 25 mM HEPES; RAW264.7 cells for 2 h in DMEM), washed once again with HBSS^++, incubated in stimulation buffer (HBSS^++ with 10 mM HEPES, 0.4% faf-BSA for HEK293T cells; HBSS^++ with 25 mM HEPES and 0.01% faf-BSA for HeLa cells, clones, and RAW264.7 cells) in the absence or presence of stimuli, at 37 °C for the indicated times. […]
Protein lysates were subjected to SDS-PAGE, and after electrophoresis, the proteins were transferred to a nitrocellulose membrane (PerkinElmer Life Science, Boston, MA, USA). […] The membranes were then washed twice with T-TBS and once with TBS for 5 min, and the signals were detected by ECL (Amersham Pharmacia, Piscataway, NJ, USA). […]

For lysophosphatidylinositol [LPI], the “activation kinetics of ERK1/2” value (HEK293T with HA-GPR55 wild-type, K80A or Q87A) is recorded as “comparable activation kinetics of ERK1/2 in all of the transfectants”. Also, under “HEK293T”, the “ERK1/2 phosphorylation, GPR55-transfected and empty-vector-transfected cells” value was “increased phosphorylation of ERK1/2”.
